Several values for one entry are separate records, joined by “and”; a condition that tells them apart may be missing. Equal entries are not always repeated. Toxic doses and inconclusive results are not listed.
Test system: P388 leukemia ip, CD2F1 mice, survival T/C
Experiment: NCI In Vivo Anticancer Drug Screen. Data for tumor model P388 Leukemia (intraperitoneal) in CD2F1 (CDF1) mice
Details: endpoint: median survival time, higher = longer survival
Outline: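 Mice carrying the transplanted tumor received test compound or vehicle. Survival was recorded in each group, and the value is the treated-group measurement divided by that of the vehicle-treated control group.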

[1] = dose: 12.5 mg/kg/injection, schedule: Q01DX005 (ip), vehicle: saline with Tween-80
[2] = dose: 50.0 mg/kg/injection, schedule: Q01DX005 (ip), vehicle: saline with Tween-80
[3] = dose: 100.0 mg/kg/injection, schedule: Q01DX005 (ip), vehicle: saline with Tween-80
[4] = dose: 60.0 mg/kg/injection, schedule: Q01DX005 (ip), vehicle: saline with Tween-80
[5] = dose: 120.0 mg/kg/injection, schedule: Q01DX005 (ip), vehicle: saline with Tween-80
[6] = dose: 240.0 mg/kg/injection, schedule: Q01DX005 (ip), vehicle: saline with Tween-80
[7] = dose: 12.5 mg/kg/injection, schedule: Q01DX009 (ip), vehicle: Klucel (hydroxypropylcellulose) (HPC)
[8] = dose: 25.0 mg/kg/injection, schedule: Q01DX009 (ip), vehicle: Klucel (hydroxypropylcellulose) (HPC)
[9] = dose: 50.0 mg/kg/injection, schedule: Q01DX009 (ip), vehicle: Klucel (hydroxypropylcellulose) (HPC)
[10] = dose: 100.0 mg/kg/injection, schedule: Q01DX009 (ip), vehicle: Klucel (hydroxypropylcellulose) (HPC)
[11] = dose: 50.0 mg/kg/injection, schedule: Q01DX005 (ip), vehicle: saline
[12] = dose: 100.0 mg/kg/injection, schedule: Q01DX005 (ip), vehicle: saline
[13] = dose: 25.0 mg/kg/injection, schedule: Q01DX005 (ip), vehicle: Klucel (hydroxypropylcellulose) (HPC)
[14] = dose: 50.0 mg/kg/injection, schedule: Q01DX005 (ip), vehicle: Klucel (hydroxypropylcellulose) (HPC)

## CC1CN1P(=O)(N1CC=CCC1)N1CC1C (stereo unspecified)
dose: 22.0 mg/kg/injection, schedule: Q04DX003 (ip), vehicle: saline
  T/C: 100 % of control
dose: 33.0 mg/kg/injection, schedule: Q01DX009 (ip), vehicle: saline
  T/C: 150 % of control
dose: 33.0 mg/kg/injection, schedule: Q04DX003 (ip), vehicle: saline
  T/C: 113 % of control
dose: 50.0 mg/kg/injection, schedule: Q04DX003 (ip), vehicle: saline
  T/C: 122 % of control
dose: 75.0 mg/kg/injection, schedule: Q04DX003 (ip), vehicle: saline
  T/C: 150 % of control

## Cc1cccc(NC(=O)N(C(C)C)C(C)C)c1
dose: 60.0 mg/kg/injection, schedule: Q01DX005 (ip), vehicle: Klucel + Tween-80
  T/C: 100 % of control
dose: 120.0 mg/kg/injection, schedule: Q01DX005 (ip), vehicle: Klucel + Tween-80
  T/C: 97 % of control
dose: 240.0 mg/kg/injection, schedule: Q01DX005 (ip), vehicle: Klucel + Tween-80
  T/C: 89 % of control

## NCC1CC2(Cl)C(Cl)=C(Cl)C1(Cl)C2(Cl)Cl (stereo unspecified)
[1]
  T/C: 106 % of control
dose: 25.0 mg/kg/injection, schedule: Q01DX005 (ip), vehicle: saline with Tween-80
  T/C: 107 % of control
[2]
  T/C: 107 % of control and 111 % of control

## CC1(C)C=Cc2c(O)c(C(=O)/C=C/c3ccccc3)c3c(c2O1)C=CC(C)(C)O3
dose: 5.25 mg/kg/injection, schedule: Q01DX005 (ip), vehicle: Klucel (hydroxypropylcellulose) (HPC)
  T/C: 100 % of control
dose: 10.5 mg/kg/injection, schedule: Q01DX005 (ip), vehicle: Klucel (hydroxypropylcellulose) (HPC)
  T/C: 95 % of control
dose: 21.0 mg/kg/injection, schedule: Q01DX005 (ip), vehicle: Klucel (hydroxypropylcellulose) (HPC)
  T/C: 97 % of control
dose: 42.0 mg/kg/injection, schedule: Q01DX005 (ip), vehicle: Klucel (hydroxypropylcellulose) (HPC)
  T/C: 86 % of control

## CCCCCNCC(=O)N1CCCC1C(=O)OC(C)(C)C (stereo unspecified)
[2]
  T/C: 97 % of control
[3]
  T/C: 105 % of control
dose: 200.0 mg/kg/injection, schedule: Q01DX005 (ip), vehicle: saline with Tween-80
  T/C: 103 % of control

## O=C(N/C(=C\c1ccc(Cl)cc1)c1nc2ccccc2s1)c1ccccc1
[4]
  T/C: 111 % of control
[5]
  T/C: 113 % of control
[6]
  T/C: 113 % of control

## CC(C)OC(=O)C#N
dose: 1.56 mg/kg/injection, schedule: Q01DX005 (ip), vehicle: saline with Tween-80
  T/C: 100 % of control
dose: 3.12 mg/kg/injection, schedule: Q01DX005 (ip), vehicle: saline with Tween-80
  T/C: 101 % of control
dose: 6.25 mg/kg/injection, schedule: Q01DX005 (ip), vehicle: saline with Tween-80
  T/C: 100 % of control
[1]
  T/C: 98 % of control

## CCOC(=O)NC(C#N)=C(Cl)Cl
dose: 6.25 mg/kg/injection, schedule: Q01DX009 (ip), vehicle: Klucel (hydroxypropylcellulose) (HPC)
  T/C: 100 % of control
[7]
  T/C: 100 % of control
[8]
  T/C: 101 % of control

## c1ccc2c(c1)C[n+]1ccc3ccccc3c1-c1c3ccccc3cc[n+]1C2
dose: 12.5 mg/kg/injection, schedule: Q01DX001 (ip), vehicle: saline
  T/C: 100 % of control
dose: 25.0 mg/kg/injection, schedule: Q01DX001 (ip), vehicle: saline
  T/C: 107 % of control

## C=CC=O
dose: 0.44 mg/kg/injection, schedule: Q01DX009 (ip), vehicle: saline
  T/C: 109 % of control
dose: 0.88 mg/kg/injection, schedule: Q01DX009 (ip), vehicle: saline
  T/C: 109 % of control
dose: 1.56 mg/kg/injection, schedule: Q01DX009 (ip), vehicle: saline
  T/C: 109 % of control

## Cc1[nH]c2ccc(N(C)C)cc2c(=O)c1CN(C)C
[9]
  T/C: 105 % of control
[10]
  T/C: 108 % of control

## Cc1cc(NCCCNCCCNc2cc(C)nc3cc(N)ccc23)c2ccc(N)cc2n1
dose: 12.5 mg/kg/injection, schedule: Q01DX009 (ip), vehicle: other
  T/C: 160 % of control

## CCCCCC1([N+](=O)[O-])CN(C)CC2CCCCN2C1 (stereo unspecified)
dose: 100.0 mg/kg/injection, schedule: Q04DX002 (ip), vehicle: saline
  T/C: 102 % of control
dose: 200.0 mg/kg/injection, schedule: Q04DX002 (ip), vehicle: saline
  T/C: 102 % of control

## CC1NS(=O)(=O)c2ccccc2C1=O (stereo unspecified)
dose: 100.0 mg/kg/injection, schedule: Q04DX003 (ip), vehicle: saline
  T/C: 100 % of control
dose: 200.0 mg/kg/injection, schedule: Q04DX003 (ip), vehicle: saline
  T/C: 101 % of control
dose: 400.0 mg/kg/injection, schedule: Q04DX003 (ip), vehicle: saline
  T/C: 108 % of control

## CN1C2C=CC1c1c(C3=NC(C)(C)CO3)cccc12 (stereo unspecified)
[11]
  T/C: 98 % of control
[12]
  T/C: 103 % of control

## COc1cc(Nc2ccccc2)c2c(c1N)C(=O)c1ccccc1C2=O
[2]
  T/C: 91 % of control
[3]
  T/C: 88 % of control

## O=C1CCCC1C(=O)c1ccccc1.O=C1CCCC1C(=O)c1ccccc1.[Cu] (stereo unspecified)
[7]
  T/C: 103 % of control
[8]
  T/C: 100 % of control
[9]
  T/C: 100 % of control and 109 % of control
[10]
  T/C: 116 % of control

## CCOC(=O)C1=CNN=CC12C(=O)C(C(=O)OCC)CC2C(=O)OCC (stereo unspecified)
dose: 100.0 mg/kg/injection, schedule: Q04DX002 (ip), vehicle: saline with Tween-80
  T/C: 96 % of control
dose: 200.0 mg/kg/injection, schedule: Q04DX002 (ip), vehicle: saline with Tween-80
  T/C: 93 % of control
dose: 400.0 mg/kg/injection, schedule: Q04DX002 (ip), vehicle: saline with Tween-80
  T/C: 92 % of control

## O=C1OCc2cnccc21
dose: 8.75 mg/kg/injection, schedule: Q01DX005 (ip), vehicle: Klucel (hydroxypropylcellulose) (HPC)
  T/C: 98 % of control
dose: 17.5 mg/kg/injection, schedule: Q01DX005 (ip), vehicle: Klucel (hydroxypropylcellulose) (HPC)
  T/C: 100 % of control
dose: 35.0 mg/kg/injection, schedule: Q01DX005 (ip), vehicle: Klucel (hydroxypropylcellulose) (HPC)
  T/C: 97 % of control

## CCCOC(=O)c1ccccc1OP(=O)(N(C)C)N(C)C
[11]
  T/C: 93 % of control
[12]
  T/C: 98 % of control
dose: 200.0 mg/kg/injection, schedule: Q01DX005 (ip), vehicle: saline
  T/C: 108 % of control

## COc1ccc2c(c1OC)C1=NCCc3cc4c(cc3C1(OC)C2=O)OCO4 (stereo unspecified)
[13]
  T/C: 111 % of control
[14]
  T/C: 99 % of control
dose: 100.0 mg/kg/injection, schedule: Q01DX005 (ip), vehicle: Klucel (hydroxypropylcellulose) (HPC)
  T/C: 109 % of control
dose: 200.0 mg/kg/injection, schedule: Q01DX005 (ip), vehicle: Klucel (hydroxypropylcellulose) (HPC)
  T/C: 98 % of control

## O=C1NC(c2cccc3c2OCO3)N=C2Oc3ccccc3C=C12 (stereo unspecified)
dose: 25.0 mg/kg/injection, schedule: Q01DX009 (ip), vehicle: saline
  T/C: 107 % of control and 87 % of control
dose: 50.0 mg/kg/injection, schedule: Q01DX009 (ip), vehicle: saline with Tween-80
  T/C: 118 % of control
dose: 50.0 mg/kg/injection, schedule: Q01DX009 (ip), vehicle: saline
  T/C: 100 % of control and 107 % of control
dose: 100.0 mg/kg/injection, schedule: Q01DX009 (ip), vehicle: saline with Tween-80
  T/C: 120 % of control
dose: 100.0 mg/kg/injection, schedule: Q01DX009 (ip), vehicle: saline
  T/C: 106 % of control and 117 % of control
dose: 200.0 mg/kg/injection, schedule: Q01DX009 (ip), vehicle: saline
  T/C: 106 % of control and 117 % of control

## CC1(C)OCC(C(O)c2nc3ccccc3nc2C(=O)Nc2ccccc2N)O1 (stereo unspecified)
dose: 100.0 mg/kg/injection, schedule: Q01DX001 (ip), vehicle: saline with Tween-80
  T/C: 97 % of control
dose: 200.0 mg/kg/injection, schedule: Q01DX001 (ip), vehicle: saline with Tween-80
  T/C: 92 % of control
dose: 400.0 mg/kg/injection, schedule: Q01DX001 (ip), vehicle: saline with Tween-80
  T/C: 86 % of control

## O=C(OCc1ccccc1)N1C[C@@H](Br)[C@H](Br)[C@H]1Cc1ccccc1
dose: 100.0 mg/kg/injection, schedule: Q01DX001 (ip), vehicle: distilled water + alcohol
  T/C: 95 % of control
dose: 200.0 mg/kg/injection, schedule: Q01DX001 (ip), vehicle: distilled water + alcohol
  T/C: 100 % of control

## O=P1(NC23CC4CC(CC(C4)C2)C3)OC(CCl)=NC1c1ccc(C2N=C(CCl)OP2(=O)NC23CC4CC(CC(C4)C2)C3)cc1 (stereo unspecified)
[4]
  T/C: 98 % of control
[5]
  T/C: 98 % of control
[6]
  T/C: 98 % of control

## CN=C1NC(=O)C(c2ccccc2)S1 (stereo unspecified)
[2]
  T/C: 99 % of control
[3]
  T/C: 99 % of control

## CC1(C)C(=O)NC(=O)c2ccccc21
dose: 12.5 mg/kg/injection, schedule: Q01DX005 (ip), vehicle: Klucel (hydroxypropylcellulose) (HPC)
  T/C: 107 % of control
[13]
  T/C: 107 % of control
[14]
  T/C: 100 % of control and 102 % of control
